Molecules are shown by their SMILES. ± gives the expanded uncertainty stated by the source.

The record followed here is the NIST ThermoML archive (doi:10.1016/j.fluid.2014.11.020).

This data set can be described thus: activity coefficient (dimensionless); of the first substance listed, at infinite dilution; xn = mol fraction of the nth substance listed. The settings on record: Liquid, Chromatography, x1 = 0.

As to `CCCCCCCCCCCCC` [tridecane] + CCCOC[n+]1ccc(N(C)C)cc1.O=S(=O)([N-]S(=O)(=O)C(F)(F)F)C(F)(F)F, the activity coefficient (323.15 K) worked out at 102 ± 7, the activity coefficient (333.15 K) was 96.4 ± 6.6 and the activity coefficient (343.15 K) is 81.9 ± 5.6.

Regarding `CCCCCCCCCCCCC` [tridecane] + CCCOC[n+]1ccn(C)c1.F[B-](F)(F)F, the activity coefficient (323.15 K) was 1640 ± 110, the activity coefficient (333.15 K) came to 1630 ± 110 and the activity coefficient (343.15 K) stood at 1630 ± 110.

Take `CCCCCCCCCCCCC` [tridecane] + CCCOC[n+]1ccn(C)c1.N#C[N-]C#N: the activity coefficient (323.15 K) was determined as 1150 ± 79, the activity coefficient (333.15 K) came to 1030 ± 71 and the activity coefficient (343.15 K) was 916 ± 63.

As to `CCCCCCCCCCCCC` [tridecane] + CCCOC[n+]1ccn(C)c1.O=S(=O)([N-]S(=O)(=O)C(F)(F)F)C(F)(F)F, the activity coefficient was determined as 201 ± 14 (323.15 K), 165 ± 11 (333.15 K) and 147 ± 10 (343.15 K).

For `CCN(CC)CC` [triethylamine] + CCCCCCCCn1cc[n+](COCCC)c1C.O=S(=O)([N-]S(=O)(=O)C(F)(F)F)C(F)(F)F, the activity coefficient (323.15 K) came out at 1.2 ± 0.08.

Turning to `CCN(CC)CC` [triethylamine] + CCCOC[n+]1ccn(C)c1.N#C[N-]C#N, the activity coefficient runs as follows: (323.15 K) 10.3 ± 0.7; (333.15 K) 15.7 ± 1.1; (343.15 K) 24.8 ± 1.7.

With `CCN(CC)CC` [triethylamine] + CCCOC[n+]1ccn(Cc2ccccc2)c1.N#C[N-]C#N, the activity coefficient (323.15 K) was found to be 9.22 ± 0.63.

In the case of `CCN(CC)CC` [triethylamine] + Cn1cc[n+](COCCCOC[n+]2ccn(C)c2)c1.N#C[N-]C#N.N#C[N-]C#N, the activity coefficient is 54.6 ± 3.7 (323.15 K), 52.5 ± 3.6 (333.15 K) and 50.5 ± 3.5 (343.15 K).

Turning to `CCCCCCCCCCC` [undecane] + CCCCCCCCn1cc[n+](COCCC)c1C.N#C[N-]C#N, the activity coefficient (323.15 K) is 20.6 ± 1.4, the activity coefficient (333.15 K) is 19.6 ± 1.3 and the activity coefficient (343.15 K) is 18.2 ± 1.2.

Take `CCCCCCCCCCC` [undecane] + CCCCCCCCn1cc[n+](COCCC)c1C.O=S(=O)([N-]S(=O)(=O)C(F)(F)F)C(F)(F)F: the activity coefficient came out at 11.2 ± 0.76 (323.15 K), 10.5 ± 0.72 (333.15 K) and 9.8 ± 0.67 (343.15 K).

As to `CCCCCCCCCCC` [undecane] + CCCCCCCCn1cc[n+](COCCCOC[n+]2ccn(CCCCCCCC)c2C)c1C.N#C[N-]C#N.N#C[N-]C#N, the activity coefficient by setting is: (323.15 K) 24.4 ± 1.7; (333.15 K) 23.4 ± 1.6; (343.15 K) 22.4 ± 1.5.

For `CCCCCCCCCCC` [undecane] + CCCCCCCCn1cc[n+](COCCCOC[n+]2ccn(CCCCCCCC)c2C)c1C.O=S(=O)([N-]S(=O)(=O)C(F)(F)F)C(F)(F)F.O=S(=O)([N-]S(=O)(=O)C(F)(F)F)C(F)(F)F, the activity coefficient by setting is: (323.15 K) 12.4 ± 0.85; (333.15 K) 11.1 ± 0.76; (343.15 K) 10.6 ± 0.72.

As to `CCCCCCCCCCC` [undecane] + CCCOC[n+]1ccc(N(C)C)cc1.O=S(=O)([N-]S(=O)(=O)C(F)(F)F)C(F)(F)F, the activity coefficient amounted to 55.7 ± 3.8 (323.15 K), 52.9 ± 3.6 (333.15 K) and 46.6 ± 3.2 (343.15 K).

Take `CCCCCCCCCCC` [undecane] + CCCOC[n+]1ccn(C)c1.F[B-](F)(F)F: the activity coefficient was 911 ± 63 (323.15 K), 883 ± 61 (333.15 K) and 780 ± 54 (343.15 K).

Turning to `CCCCCCCCCCC` [undecane] + CCCOC[n+]1ccn(C)c1.N#C[N-]C#N, the activity coefficient is, setting by setting: (323.15 K) 556 ± 38; (333.15 K) 504 ± 35; (343.15 K) 432 ± 30.

On to `CCCCCCCCCCC` [undecane] + CCCOC[n+]1ccn(C)c1.O=S(=O)([N-]S(=O)(=O)C(F)(F)F)C(F)(F)F, for which the activity coefficient (323.15 K) turned out to be 89.7 ± 6.2, the activity coefficient (333.15 K) was 85.9 ± 5.9 and the activity coefficient (343.15 K) worked out at 75.3 ± 5.2.

For `CCCCCCCCCCC` [undecane] + CCCOC[n+]1ccn(Cc2ccccc2)c1.F[B-](F)(F)F, the activity coefficient by setting is: (323.15 K) 352 ± 24; (333.15 K) 301 ± 21; (343.15 K) 286 ± 20.

For the compound `CCCCCCCCCCC` [undecane] + CCCOC[n+]1ccn(Cc2ccccc2)c1.N#C[N-]C#N, the activity coefficient (323.15 K) was 208 ± 14, the activity coefficient (333.15 K) amounted to 175 ± 12 and the activity coefficient (343.15 K) turned out to be 140 ± 9.6.

As to `CCCCCCCCCCC` [undecane] + CCCOC[n+]1ccn(Cc2ccccc2)c1.O=S(=O)([N-]S(=O)(=O)C(F)(F)F)C(F)(F)F, the activity coefficient is 41.6 ± 2.9 (323.15 K), 31 ± 2.1 (333.15 K) and 27.7 ± 1.9 (343.15 K).

On to `CCCCCCCCCCC` [undecane] + CN(C)c1cc[n+](COCCCOC[n+]2ccc(N(C)C)cc2)cc1.O=S(=O)([N-]S(=O)(=O)C(F)(F)F)C(F)(F)F.O=S(=O)([N-]S(=O)(=O)C(F)(F)F)C(F)(F)F, for which the activity coefficient reads like this: (323.15 K) 114 ± 7.8; (333.15 K) 99 ± 6.8; (343.15 K) 88.6 ± 6.1.

With `CCCCCCCCCCC` [undecane] + Cn1cc[n+](COCCCOC[n+]2ccn(C)c2)c1.N#C[N-]C#N.N#C[N-]C#N, the activity coefficient runs as follows: (323.15 K) 938 ± 65; (333.15 K) 899 ± 62; (343.15 K) 797 ± 55.

With `CCCCCCCCCCC` [undecane] + Cn1cc[n+](COCCCOC[n+]2ccn(C)c2)c1.O=S(=O)([N-]S(=O)(=O)C(F)(F)F)C(F)(F)F.O=S(=O)([N-]S(=O)(=O)C(F)(F)F)C(F)(F)F, the activity coefficient by setting is: (323.15 K) 193 ± 13; (333.15 K) 191 ± 13; (343.15 K) 162 ± 11.

In the case of `CCCCCCCCCCC` [undecane] + N#C[N-]C#N.N#C[N-]C#N.c1ccc(Cn2cc[n+](COCCCOC[n+]3ccn(Cc4ccccc4)c3)c2)cc1, the activity coefficient was determined as 554 ± 38 (323.15 K), 508 ± 35 (333.15 K) and 457 ± 31 (343.15 K).
